Experimental data: patent US9068080B2, “Merocyanine derivatives” (BASF SE, priority 2006, dated 2015)

Assay: UV absorption spectrum (λmax, ε) of the merocyanine UV filters
Type: physicochemical

In the case of CCOC(=O)/C(C#N)=C1/C=C(NCCC[Si]2(C)O[Si](C)(CCCNC3=C/C(=C(\C#N)C(=O)OCC)CC(C)(C)C3)O[Si](C)(CCCNC3=C/C(=C(\C#N)C(=O)OCC)CC(C)(C)C3)O[Si](C)(CCCNC3=C/C(=C(\C#N)C(=O)OCC)CC(C)(C)C3)O2)CC(C)(C)C1 (stereo not shown) [MC 11], the “UV λmax” value (in EtOH) is reported as 388 nm and the “ε (molar extinction at λmax)” value (in EtOH) is reported as 181817.
With CN(/C=C/C=C(C#N)C#N)CCC[Si](C)(O[Si](C)(C)C)O[Si](C)(C)C [MC 14] the “UV λmax” value (in CH3CN/H2O) was 383 nm.
In the case of CN(/C=C/C=C(C#N)C#N)CCC[Si]1(C)O[Si](C)(CCCN(C)/C=C/C=C(C#N)C#N)O[Si](C)(CCCN(C)/C=C/C=C(C#N)C#N)O[Si](C)(CCCN(C)/C=C/C=C(C#N)C#N)O1 (stereo not shown) [MC 15], the “UV λmax” value (in CH3CN/H2O) is reported as 378 nm.
With CCOC(=O)/C(C#N)=C\C=C\N(C)CCC[Si]1(C)O[Si](C)(CCCN(C)/C=C/C=C(/C#N)C(=O)OCC)O[Si](C)(CCCN(C)/C=C/C=C(/C#N)C(=O)OCC)O[Si](C)(CCCN(C)/C=C/C=C(/C#N)C(=O)OCC)O1 (stereo not shown) [MC 12] the “UV λmax” value (in CH3CN/H2O) was 381 nm.
In the case of CC1(C)CC(NCCC[Si](C)(O[Si](C)(C)C)O[Si](C)(C)C)=CC(=C(C#N)C#N)C1 [MC 07], the “UV λmax” value (in CH3CN/H2O) is reported as 382 nm, the “UV λmax” value (in EtOH) is reported as 381 nm and the “ε (molar extinction at λmax)” value (in EtOH) is reported as 52829.
For CCOC(=O)/C(C#N)=C\C=C\N(C)CCC[Si](C)(O[Si](C)(C)C)O[Si](C)(C)C [MC 13], the “UV λmax” value (in CH3CN/H2O) was 381 nm, the “UV λmax” value (in EtOH) was 380 nm and the “ε (molar extinction at λmax)” value (in EtOH) was 69116.
For CCOC(=O)/C(C#N)=C1\C=C(NCCC[Si](C)(O[Si](C)(C)C)O[Si](C)(C)C)CC(C)(C)C1 [MC 08], the “UV λmax” value (in EtOH) was 388 nm and the “ε (molar extinction at λmax)” value (in EtOH) was 50383.
